We go through two molecules from PMC7936271, “Discovery and characterization of bromodomain 2–specific inhibitors of BRDT” (Proceedings of the National Academy of Sciences of the …, 2021).

The subject of one series is BD2. On the set-up: method as in PMID 32193360. The following applies: BD2-specific inhibitor; cited from earlier work.
Series [1] relates to BRDT-BD2.
Series [2] can be described thus: Metabolic stability assay in mouse liver microsomes. The class given is in vitro ADME. Particulars: mouse liver microsomes, 2.0 μM, 37 °C; data >60 min are an extrapolated estimate; read-out: t1/2, min MLM. The method, then: (§1) 2d) Metabolic stability assay in liver microsomes. […]
(§2) The reactions are terminated by adding equivalent
(§3) volume of ice-cold CH3OH and vortexed.
(§4) temperature was ma i ntained at 40 °C.
(§5) (acetonitrile containing 0.1% formic acid). […]

Series [3] is described as follows: Metabolic stability assay in human liver microsomes. It is filed as in vitro ADME. The following applies: human liver microsomes, 2.0 μM, 37 °C; data >60 min are an extrapolated estimate; read-out: t1/2, min HLM. The method, then: as §1, §2, §3, §4, §5
For series [4] the following is noted: mice; cited from earlier work.
Series [5] concerns the target BRDT-BD2 (Homo sapiens, UniProt Q58F21). Nature of the series: AlphaScreen competition assay with biotinylated JQ1, BRDT-BD2. The class given is binding. On the set-up: BRDT-BD2, NP_001717.3 amino acid 269− 380; made in house; host or cells: E. coli NiCo21 (DE3). The following applies: ratio of AlphaScreen IC50 values. (Alpha assays give light when donor and acceptor beads are brought close together.)

Consider `CC(=O)Nc1c(F)cc(C(=O)N[C@H]2CC[C@H](O)CC2)cc1O[C@@H](C)c1ccccc1` [GSK046], for which the “selectivity over BD1” value in the series with BD2 is reported as above 300 fold.
On to `Cc1sc2c(c1C)C(c1ccc(Cl)cc1)=N[C@@H](CC(=O)OC(C)(C)C)c1nnc(C)n1-2` [JQ1, reference compound], for which the ΔTm at 25 µM was determined as 3.48 °C in the series on BRDT-BD1, 10.3 °C in the series with BRDT-BD2 [1], 7.84 °C with BRD4-BD1 and 7.43 °C in the series on BRD4-BD2. The half-life at 2 μM in [2] was 15 min; in series [3], 6 min. The “bioavailable across the blood-testis boundary” value in series [4] is reported as 100%. Also, the “BRDT-BD2 vs. BRD4-BD2” value at BRDT-BD2 [5] stood at 0.4.

One may read the ΔTm as the shift of the melting midpoint relative to a reference.
